Laboratory results reported in PMC6659632, “Preferential phosphatidylinositol 5-phosphate binding contributes to a destabilization of the VHS domain structure of Tom1” (Scientific Reports, 2019).
Read-outs that look alike come from different tables or passages of the source. One block for each compound: values may come before it.

What was measured:
Assay type in all cases: binding
Tom1 VHS domain [1] = molecular target: T1, Tom1 VHS domain (Homo sapiens, UniProt O60784); assay: isothermal titration calorimetry
T1 construct: GST fusion from E. coli Rosetta, GST cut off with thrombin; monomer
T1 sequence (O60784 1-140 limits assumed): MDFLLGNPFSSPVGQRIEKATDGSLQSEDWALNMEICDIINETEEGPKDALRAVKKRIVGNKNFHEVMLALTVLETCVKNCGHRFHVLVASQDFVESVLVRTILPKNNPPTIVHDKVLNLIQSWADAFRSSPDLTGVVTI
Excerpt: isothermal titration calorimetry on Tom1 VHS domain

Tom1 VHS domain [2] = molecular target: T1, Tom1 VHS domain; assay: thermal denaturation by far-UV CD at […] nm; conditions: molar excess of lipid, nonreducing, 5 mM sodium citrate pH 7.3, 50 mM KF; free protein Tm 47.5 ± 0.1 °C
Tom1 VHS domain [3] = molecular target: T1, Tom1 VHS domain; assay: thermal denaturation by far-UV CD at […] nm; conditions: pre-incubated with excess lipid, nonreducing, 5 mM sodium citrate pH 7.3, 50 mM KF; free protein Tm 47.5 ± 0.1 °C

Kd (Tom1 VHS domain [1]): 214 ± 67.2 µM
Compound: O=P(O)(O)O[C@@H]1[C@@H](O)[C@H](OP(=O)(O)O)[C@H](O)[C@H](O)[C@H]1O [Ins(1,5)P2]

Compound: CCCCCCCC(=O)OC[C@H](COP(=O)([O-])OCC[N+](C)(C)C)OC(=O)CCCCCCC [PtdCho]
Tm (°C) / N to I/D (Tom1 VHS domain [2]): 43.0 ± 0.1 °C

Tm (°C) / N to I/D (Tom1 VHS domain [2]): 37.6 ± 0.3 °C
Kd (Tom1 VHS domain [1]; high-affinity site of two-site fit, nonreducing, 20 mM HEPES pH 7.4, 150 mM KCl, 25 °C): 3.1 ± 0.6 µM
Compound: CCCCCCCC(=O)OC[C@H](COP(=O)(O)O[C@H]1[C@H](O)[C@@H](OP(=O)(O)O)[C@H](O)[C@@H](O)[C@H]1O)OC(=O)CCCCCCC [PtdIns5P]

mid-transition temperature (Tom1 VHS domain [3]): 34 °C
Compound: PtdIns
